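The compound was tested at five concentrations on cells cultured in 96-well plates, with a 48-hour exposure period. GI50 = concentration required for 50% inhibition of growth. TGI marks complete inhibition of growth.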 Where a SMILES comes first, the peptide text is derived from it. Bridges are numbered along the chain shown (N, C = ends). [ ]: non-standard residue; d: D form. The star is where a group is joined. ξ: configuration not given here. ξDab(CH2SO3H) = NC(CCNCS(=O)(=O)O)C(=O)O; Heptanoyl(6-Me) = CC(C)CCCCC(=O)*; Dab = NCC[CH](N)C(=O)O

For this assay, the system named is MDA-MB-468 breast. As to the kind of experiment: DTP human tumour cell line panel, 48 h.
For orientation: GI50 means the concentration at which growth is held to half of that of the control. By TGI is commonly meant the concentration at which net growth stops. Turning to `[Cl][Hg][c]1ccc(Cl)s1`, the GI50 is 1.19 µM and the TGI came to 2.77 µM.

On to `C=C1[C@@H](C)C2[C@H](Cc3ccccc3)NC(=O)[C@]23[C@H](OC(C)=O)/C=C/[C@@](C)(O)C(=O)[C@@H](C)C/C=C/[C@H]3[C@@H]1O` (stereo not given in full), for which the GI50 is 0.0389 µM and the TGI turned out to be 12.7 µM.

For the compound `CCCCCCCCCCCCSC1=C(Cl)C(=O)C(OC)=C(OC)C1=O`, the GI50 was 0.438 µM and the TGI turned out to be 16.9 µM.

In the case of `COCCNc1ccc2c3c(cccc13)C(=O)N(CCN(C)C)C2=O`, the GI50 was 7.1 µM and the TGI is above 25 µM.

Turning to `COc1cc(C(=O)N2CCN(c3ccccc3)CC2)c2ccccc2n1`, the GI50 is 0.0318 µM and the concentration for total growth inhibition (TGI) was found to be 0.211 µM.

For the compound `Cc1cc(O)cc(C)c1/C=C/c1cncc(C(N)=O)c1`, the GI50 was 0.749 µM and the TGI came to 4.62 µM.

As for `Clc1ccc(Nc2ccnc(N3CCN(c4ccnc5cc(Cl)ccc45)CC3)n2)cc1`, the GI50 was 2.08 µM and the TGI came to 5.56 µM.

For the compound `COc1ccc(Nc2cc(C)nc(NCc3ccccc3)n2)cc1`, the GI50 is 0.776 µM and the TGI came to 2.51 µM.

For `COc1cccc(/C=N/NC(=O)c2ccccc2N2CCCC2)c1O`, the GI50 is 3.33 µM and the TGI was above 100 µM.

For `N=C(N)SCc1c2ccccc2c(CSC(=N)N)c2ccccc12`, the GI50 was 2.32 µM and the TGI turned out to be 9.81 µM.

For `N#C[Se]CCN1C(=O)C2C(C1=O)[C@H]1C=C[C@@H]2S1` (stereo not given in full), the GI50 was 2.6 µM and the total growth inhibition concentration (TGI) stood at 7.71 µM.

In the case of `O=C(/C(=C/c1ccc([N+](=O)[O-])cc1)SCc1ccc(Cl)cc1)c1ccc(F)cc1`, the GI50 was 2.87 µM and the TGI worked out at 9.22 µM.

`N#Cc1c(N)n2c(nc1=Nc1ccc(Cl)cc1)sc1cc(Cl)ccc12`: the GI50 is 3.62 µM and the TGI is above 100 µM.

In the case of `COc1cc2c(c(OC)c1OC)-c1ccc(OC)c(=O)cc1[C@@H](NC(C)=O)CC2`, the GI50 is below 0.01 µM and the TGI is above 100 µM.

Take `Cc1ccc2c(n1)C(=O)C(Cl)=C(Nc1ccccc1C(=O)OC(C)(C)C)C2=O`: the GI50 was 1.47 µM and the TGI is 3.25 µM.

For `CCN1C(=O)N(CC)C2C1NN=c1s/c(=C\c3ccco3)c(=O)n12` (stereo not given), the GI50 is 0.356 µM and the TGI is above 100 µM.

In the case of `CN(C)CCCCC(C(=O)CBr)(c1ccccc1)c1ccccc1`, the GI50 is 1.09 µM and the TGI amounted to 2.89 µM.

Take `O=C([O][Hg][CH2]C1OCCOC1[CH2][Hg][O]C(=O)c1ccccc1)c1ccccc1` (stereo not given): the GI50 is 1.71 µM and the TGI was determined as 3.08 µM.

With `CCOC(=O)Nc1nc2ccc(Br)cc2s1`, the GI50 is above 50 µM and the TGI was above 50 µM.

Consider `COc1cc(/C(=C2/O[C@@H]([C@H]3COC(C)(C)O3)[C@H]3OC(C)(C)O[C@@H]23)c2ccc3ccccc3c2)cc(OC)c1OC`, for which the GI50 was 4.02 µM and the TGI was 21.1 µM.

With `Cc1ccc2c(c1)c(Sc1ccc(C(=O)NO)cc1)c1n2CN(C)CC1`, the GI50 was 1.1 µM and the TGI turned out to be 2.97 µM.

For the compound `CCC(C)C1NC(=O)C(CCNCS(=O)(=O)O)NC(=O)C(NC(=O)C(CCNCS(=O)(=O)O)NC(=O)C(NC(=O)C(CCNCS(=O)(=O)O)NC(=O)CCCCC(C)C)C(C)O)CCNC(=O)C(C(C)O)NC(=O)C(CCNCS(=O)(=O)O)NC(=O)C(CCNCS(=O)(=O)O)NC(=O)C(C(C)CC)NC1=O` (stereo not given) ({Heptanoyl(6-Me)}-[ξDab(CH2SO3H)]T[ξDab(CH2SO3H)][Dab][ξDab(CH2SO3H)]II[ξDab(CH2SO3H)][ξDab(CH2SO3H)]T; lactam 4-C; configuration not given here), the GI50 is 0.807 µM and the TGI stood at 4.89 µM.

Turning to `CCCCCCCCC/C(=N\NC(=O)c1ccncc1)c1ccc(O)c(O)c1O`, the GI50 was 0.161 µM and the TGI was found to be 1.11 µM.

As for `COc1cc2ncnc(Nc3cccc(Cl)c3F)c2cc1OC(=O)N1CCN(C)C[C@H]1C`, the GI50 was 0.0607 µM and the total growth inhibition concentration (TGI) was 1.27 µM.

Take `CCOC(=O)c1cc(C(=O)c2cc(OC)c(OC)c(OC)c2)n2c1ccc1ccccc12`: the GI50 is 0.158 µM.

For `Cc1nc(-c2nc(-c3ccc(OC(F)(F)F)cc3)no2)nn1Cc1cccc(N2CCC(S(C)(=O)=O)CC2)c1`, the GI50 is below 0.01 µM and the TGI stood at 3.9 µM.

As for `C=C1C(=O)O[C@H]2[C@H]1CC/C(C=Nc1c(N)cc(C(F)(F)F)cc1C(F)(F)F)=C\CC[C@@]1(C)O[C@@H]21`, the GI50 was 1.5 µM and the concentration for total growth inhibition (TGI) was 3.21 µM.

`CC[C@]12CC(C(=O)OC)=C3Nc4ccccc4[C@@]34CCN(C14)[C@@H]1c3cc4c(cc3O[C@@H]1[C@H]2O)NC1=C(C(=O)OC)C[C@@]2(CC)C3N(CC[C@@]143)C[C@H]1O[C@H]12` (stereo not given in full): the GI50 is 0.129 µM and the TGI came to 1.05 µM.

As to `CCCCCCn1c(-c2ccc(C(=O)O/N=C(\N)c3ccc4ccccc4c3)cc2)nc(-c2ccccc2)c1-c1ccccc1`, the GI50 is 22.2 µM and the TGI stood at 97.7 µM.

`Cn1cc(C2=C(c3c4n(c5ccccc35)CCC(CN)C4)C(=O)NC2=O)c2ccccc21` (stereo not given): the GI50 is 2.91 µM and the TGI was determined as 6.89 µM.

As to `Cn1nc(C(F)(F)F)cc1-c1c[nH]c(OCc2ccc(Cl)cc2)c(-c2ccc(Cl)c(C(F)(F)F)c2)c1=O`, the GI50 is 0.94 µM and the TGI amounted to 4.73 µM.

With `COc1cc2c(cc1Cc1cccc(Cl)c1F)c(=O)c(C(=O)O)cn2[C@@H](CO)C(C)C`, the GI50 was 3.26 µM and the TGI was 9.32 µM.

Turning to `N/C(=N/N=C/c1ccccc1)N/N=C\c1ccccc1`, the GI50 was 2.52 µM and the TGI was 11.3 µM.

As to `S=C(NCCNC(=S)[S][Sn]([c]1ccccc1)([c]1ccccc1)[c]1ccccc1)[S][Sn]([c]1ccccc1)([c]1ccccc1)[c]1ccccc1`, the GI50 was 0.0129 µM and the TGI is 0.0419 µM.

Turning to `C[C@@H](NC(=O)/C(C#N)=C/c1ccc([N+](=O)[O-])cc1)c1ccccc1`, the GI50 is 1.74 µM and the TGI was 3.37 µM.

Take `O=[N+]([O-])c1ccc(C2CC(c3ccccc3)=Nc3ccccc3S2)cc1` (stereo not given): the GI50 was above 100 µM and the TGI was above 100 µM.

In the case of `CC[C@@H](C(=O)[C@H](C)[C@H](O)[C@@H](C)[C@H]1O[C@H]([C@@H](CC)C(=O)N(CC)CC)CC[C@H]1C)C1O[C@]2(C=C[C@@H](O)[C@]3(CC[C@@](C)([C@H]4CC[C@](O)(CC)[C@H](C)O4)O3)O2)[C@H](C)C[C@@H]1C` (stereo not given in full), the GI50 is 1.81 µM and the TGI worked out at 5.8 µM.

In the case of `N#Cc1c(N2CCOCC2)nc(=S)[nH]c1-c1ccccc1`, the GI50 is 25.8 µM and the TGI is above 100 µM.

Take `Cc1cc(Nc2ncc3c(n2)N(C)C(=O)N(c2cc(NC(=O)c4cccc(C(F)(F)F)c4)ccc2C)C3)n(C)n1`: the GI50 is 0.0579 µM and the TGI was 0.396 µM.

Take `C[C@]12CC[C@@H]3c4cc(O)c(O)cc4CC[C@H]3[C@@H]1CC[C@@H]2O`: the GI50 is 3.82 µM and the TGI was 21.1 µM.

With `CN(C)CCCOc1c2ccc(Cl)cc2nc2c1oc1ccccc12`, the GI50 was 1.95 µM and the TGI amounted to 5.07 µM.

In the case of `CC/C(=C(/c1ccc(O)cc1)c1ccc(OCCN)cc1)c1ccccc1`, the GI50 was 1.57 µM and the TGI is 3.94 µM.

As for `O=C(Nc1ccc(-n2cc(-c3ccncc3)c(-c3ccc(O)c(Cl)c3)n2)cc1)Nc1ccc(Cl)c(C(F)(F)F)c1`, the GI50 is 2.96 µM and the TGI was determined as 13.1 µM.

Consider `CC(=O)Nc1c(I)c(NC(C)=O)c(I)c(C(=O)O)c1I`, for which the GI50 was above 100 µM and the total growth inhibition concentration (TGI) is above 100 µM.

Regarding `CN1CCC2(CC1)NC(=O)c1c(c3ccc(Cl)c(Cl)c3n1C)C2C#N` (stereo not given), the GI50 was 2.18 µM and the TGI came to 6.87 µM.

For `CN1CCN(Cc2ccc(NC(=O)c3cncc(C#Cc4cnc5ccc(OCC(C)(C)O)nn45)c3)cc2C(F)(F)F)CC1`, the GI50 was 0.183 µM and the TGI was found to be 0.409 µM.

As for `CC(C)(C)[Si](C)(C)OC1[C@@H](O[Si](C)(C)C(C)(C)C)[C@@H](CNC(=O)NC(=O)CF)O[C@H]1n1cnc2c(NC(=O)Nc3ccccc3)ncnc21` (stereo not given in full), the GI50 was 3.21 µM and the TGI was 20.1 µM.

Take `COc1ccc2c(O)c(/C=C3\N=Nc4ccccc43)oc2c1C[C@@H]1CCNC[C@H]1F`: the GI50 is 10.4 µM and the TGI was determined as 23.6 µM.

Source of the values: PubChem BioAssay (NCI).
